From PMC4819940 (Cancer Chemotherapy and Pharmacology, 2016)
Like-named read-outs stand apart in the source and are kept apart here.

Key:
[1] = system: Western patients with advanced solid malignancies; set-up: method as in earlier work; details: 4/3 dosing schedule; cited from earlier work
[2] = Plasma pharmacokinetics of AZD5363 after a single dose and multiple doses; type: in vivo, human; details: for AUC / Tmax / Cmax / Vd/F: oral; for AUC / Cmax / Vd/F / C ss,max: geometric mean (CV%); for Tmax / t ss,max / t half: median (range); for Vd/F: read-out: V ss/F
Description: […] area under the plasma concentration–time curve (AUC), maximum plasma (peak) drug concentration (Cmax), time to reach Cmax (tmax), apparent plasma clearance (CL/F), and oral volume of distribution at steady state (Vss/F).

[3] = human, plasma, single dose, 80 mg bid continuous cohort, n=3
[4] = human, plasma, single dose, 240 mg bid continuous cohort, n=7
[5] = human, plasma, single dose, 320 mg bid continuous cohort, n=6
[6] = human, plasma, single dose, 360 mg bid intermittent 4/3 cohort, n=8
[7] = human, plasma, single dose, 400 mg bid continuous cohort, n=5
[8] = human, plasma, single dose, 480 mg bid intermittent 4/3 cohort, n=6
[9] = human, plasma, single dose, 640 mg bid intermittent 2/5 cohort, n=6
[10] = human, plasma, single dose, Total, n=41
[11] = multiple doses, 80 mg bid continuous, n=3
[12] = multiple doses, 240 mg bid continuous, n=7
[13] = multiple doses, 320 mg bid continuous, n=4
[14] = multiple doses, 360 mg bid intermittent 4/3, n=7
[15] = multiple doses, 400 mg bid continuous, n=4
[16] = multiple doses, 480 mg bid intermittent 4/3, n=6
[17] = multiple doses, 640 mg bid intermittent 2/5, n=6

In the case of `NC1(C(=O)N[C@@H](CCO)c2ccc(Cl)cc2)CCN(c2ncnc3[nH]ccc23)CC1` [AZD5363], the “recommended dose for AZD5363 monotherapy” value [1] is listed as 480 mg bid, the AUC ([2]; human, plasma, 80 mg, multiple doses, 80 mg bid continuous, n=3, read-out: AUCss) is listed as 1.52 µg·h/mL and the AUC ([2]; human, plasma, 80 mg, single dose, 80 mg bid continuous cohort, n=3, read-out: AUC) is listed as 1.27 µg·h/mL. The AUC ([2]; human, plasma, 240 mg, multiple doses, 240 mg bid continuous, n=7, read-out: AUCss) was 4.84 µg·h/mL, the AUC ([2]; human, plasma, 240 mg, single dose, 240 mg bid continuous cohort, n=7, read-out: AUC) was 3.29 µg·h/mL and the AUC ([2]; human, plasma, 320 mg, multiple doses, 320 mg bid continuous, n=4, read-out: AUCss) was 5.77 µg·h/mL. The AUC ([2]; human, plasma, 320 mg, single dose, 320 mg bid continuous cohort, n=6, read-out: AUC) was 7.11 µg·h/mL, the AUC ([2]; human, plasma, 360 mg, multiple doses, 360 mg bid intermittent 4/3, n=7, read-out: AUCss) was 5.87 µg·h/mL and the AUC ([2]; human, plasma, 360 mg, single dose, 360 mg bid intermittent 4/3 cohort, n=8, read-out: AUC) was 4.77 µg·h/mL. For the same molecule, the AUC ([2]; human, plasma, 400 mg, multiple doses, 400 mg bid continuous, n=4, read-out: AUCss) was 9.67 µg·h/mL, the AUC ([2]; human, plasma, 400 mg, single dose, 400 mg bid continuous cohort, n=5, read-out: AUC) was 4.67 µg·h/mL and the AUC ([2]; human, plasma, 480 mg, multiple doses, 480 mg bid intermittent 4/3, n=6, read-out: AUCss) was 10.9 µg·h/mL. For the same molecule, the AUC ([2]; human, plasma, 480 mg, single dose, 480 mg bid intermittent 4/3 cohort, n=6, read-out: AUC) was 7.21 µg·h/mL, the AUC ([2]; human, plasma, 640 mg, multiple doses, 640 mg bid intermittent 2/5, n=6, read-out: AUCss) was 14.2 µg·h/mL and the AUC ([2]; human, plasma, 640 mg, single dose, 640 mg bid intermittent 2/5 cohort, n=6, read-out: AUC) was 11.4 µg·h/mL. The AUC ([2]; human, plasma, multiple doses, Total, n=37, read-out: AUCss) was 6.82 µg·h/mL, the Tmax ([2]; human, plasma, single dose, all cohorts, read-out: tmax) was 1.98 h and the Cmax [2, 3] was 0.217 µg/mL. It also gave a Vd/F [2, 3] of 715 L, a Tmax ([2]; human, plasma, single dose, 80 mg bid continuous cohort, n=3, read-out: t max) of 2 h and a Cmax [2, 4] of 0.628 µg/mL. The Vd/F [2, 4] was 682 L, the Tmax ([2]; human, plasma, single dose, 240 mg bid continuous cohort, n=7, read-out: t max) was 1.9 h and the Cmax [2, 5] was 1.58 µg/mL. The Vd/F [2, 5] was 370 L, the Tmax ([2]; human, plasma, single dose, 320 mg bid continuous cohort, n=6, read-out: t max) was 1.98 h and the Cmax [2, 6] was 1.01 µg/mL. The Vd/F [2, 6] was 681 L, the Tmax ([2]; human, plasma, single dose, 360 mg bid intermittent 4/3 cohort, n=8, read-out: t max) was 1.99 h and the Cmax [2, 7] was 1.06 µg/mL. For the same molecule, the Vd/F [2, 7] was 777 L, the Tmax ([2]; human, plasma, single dose, 400 mg bid continuous cohort, n=5, read-out: t max) was 1.97 h and the Cmax [2, 8] was 1.91 µg/mL. For the same molecule, the Vd/F [2, 8] was 502 L, the Tmax ([2]; human, plasma, single dose, 480 mg bid intermittent 4/3 cohort, n=6, read-out: t max) was 1.02 h and the Cmax [2, 9] was 2.1 µg/mL. The Vd/F [2, 9] was 587 L, the Tmax ([2]; human, plasma, single dose, 640 mg bid intermittent 2/5 cohort, n=6, read-out: t max) was 2.02 h and the Cmax [2, 10] was 1.09 µg/mL. It also gave an AUC ([2]; human, plasma, single dose, Total, n=41, read-out: AUC) of 5.18 µg·h/mL, a Vd/F [2, 10] of 595 L and a half-life ([2]; human, plasma, single oral doses) of roughly 10 h. The “C ss,max” value [2, 11] was 318.3 (128.4) ng/mL, the “t ss,max” value [2, 11] was 1 (0.98‒1.97) hours and the “C ss,max” value [2, 12] was 874.4 (89.7) ng/mL. The “t ss,max” value [2, 12] was 1.98 (0.97‒3.9) hours, the “C ss,max” value [2, 13] was 1222 (53.7) ng/mL and the “t ss,max” value [2, 13] was 1.465 (0.92‒2.12) hours. The “C ss,max” value [2, 14] was 1366 (64.9) ng/mL, the “t ss,max” value [2, 14] was 0.98 (0.5‒2) hours and the “C ss,max” value [2, 15] was 2094 (56.6) ng/mL. For the same molecule, the “t ss,max” value [2, 15] was 2 (0.93‒2) hours, the “C ss,max” value [2, 16] was 2670 (36.7) ng/mL and the “t ss,max” value [2, 16] was 1.99 (1‒2.05) hours. The “C ss,max” value [2, 17] was 2618 (20.0) ng/mL, the “t ss,max” value [2, 17] was 2.01 (2‒3.97) hours and the “C ss,max” value ([2]; multiple doses, Total, n=37) was 1430 (96.6) ng/mL. The “t ss,max” value ([2]; multiple doses, Total, n=37) was 1.98 (0.5‒3.97) hours, the “t ss,max” value ([2]; multiple dosing, all cohorts) was 1.98 (0.50–3.97) hours and the “dose proportionality of exposure” value ([2]; single and multiple doses, 80- to 640-mg doses) was “generally dose proportional”. For the same molecule, the t half ([2]; single dose, 80 mg bid continuous cohort, n=3) was 11.8 (8.5‒12.2) hours and the t half ([2]; single dose, 240 mg bid continuous cohort, n=7) was 10.2 (8.2‒10.9) hours.
